Measured values taken from PubChem BioAssay (NCI).
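96-well plates; 48 h exposure; 5 concentrations. Endpoints by linear interpolation between flanking doses. Not reached: highest tested concentration assigned. Here, GI50 denotes the concentration required for 50% inhibition of growth. TGI denotes the concentration required for complete inhibition of growth.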

Key:
Assay in all cases: inhibition of tumour cell growth, NCI panel, 48 h
HCT-15 colon = test system: HCT-15 colon
KM12 colon = test system: KM12 colon
LOX IMVI melanoma = test system: LOX IMVI melanoma
UO-31 renal = test system: UO-31 renal
BT-549 breast = test system: BT-549 breast
HT29 colon = test system: HT29 colon
MALME-3M melanoma = test system: MALME-3M melanoma
HCC-2998 colon = test system: HCC-2998 colon
T-47D breast = test system: T-47D breast
SW-620 colon = test system: SW-620 colon
HCT-116 colon = test system: HCT-116 colon
SK-MEL-5 melanoma = test system: SK-MEL-5 melanoma
HOP-62 NSCLC = test system: HOP-62 NSCLC
786-0 renal = test system: 786-0 renal
K-562 leukemia = test system: K-562 leukemia
HS 578T breast = test system: HS 578T breast
SF-539 CNS = test system: SF-539 CNS
MCF7 breast = test system: MCF7 breast
ACHN renal = test system: ACHN renal
A498 renal = test system: A498 renal
MDA-MB-231 breast = test system: MDA-MB-231 breast
COLO 205 colon = test system: COLO 205 colon
TK-10 renal = test system: TK-10 renal
SNB-75 CNS = test system: SNB-75 CNS
SN12C renal = test system: SN12C renal
U251 CNS = test system: U251 CNS
NCI/ADR-RES ovarian = test system: NCI/ADR-RES ovarian
MDA-MB-435 = test system: MDA-MB-435
OVCAR-4 ovarian = test system: OVCAR-4 ovarian
CAKI-1 renal = test system: CAKI-1 renal
EKVX NSCLC = test system: EKVX NSCLC
SR leukemia = test system: SR leukemia
HL-60(TB) leukemia = test system: HL-60(TB) leukemia
RPMI-8226 leukemia = test system: RPMI-8226 leukemia
IGROV1 ovarian = test system: IGROV1 ovarian
OVCAR-8 ovarian = test system: OVCAR-8 ovarian
NCI-H23 lung = test system: NCI-H23 lung
UACC-62 melanoma = test system: UACC-62 melanoma
SK-MEL-2 melanoma = test system: SK-MEL-2 melanoma
PC-3 prostate = test system: PC-3 prostate
UACC-257 melanoma = test system: UACC-257 melanoma
SF-295 CNS = test system: SF-295 CNS
SK-MEL-28 melanoma = test system: SK-MEL-28 melanoma
HOP-92 NSCLC = test system: HOP-92 NSCLC
NCI-H522 lung = test system: NCI-H522 lung
OVCAR-3 ovarian = test system: OVCAR-3 ovarian
A549 NSCLC = test system: A549 NSCLC
NCI-H460 lung = test system: NCI-H460 lung
CCRF-CEM leukemia = test system: CCRF-CEM leukemia
OVCAR-5 ovarian = test system: OVCAR-5 ovarian
RXF 393 renal = test system: RXF 393 renal
DU-145 prostate = test system: DU-145 prostate
MOLT-4 leukemia = test system: MOLT-4 leukemia
SK-OV-3 ovarian = test system: SK-OV-3 ovarian
SNB-19 CNS = test system: SNB-19 CNS
SF-268 CNS = test system: SF-268 CNS

## O=C(OCc1nc2nc(Cl)nc(N3CCOCC3)c2[nH]1)n1ccnc1
HCT-15 colon
  GI50: 2060 nM
  TGI: 6450 nM
KM12 colon
  GI50: 1880 nM
  TGI: 4720 nM
LOX IMVI melanoma
  GI50: 720 nM
  TGI: 2170 nM
UO-31 renal
  GI50: 1190 nM
  TGI: 2420 nM
BT-549 breast
  GI50: 2490 nM
  TGI: 9490 nM
HT29 colon
  GI50: 1590 nM
  TGI: 4330 nM
MALME-3M melanoma
  GI50: 1720 nM
  TGI: 3220 nM
HCC-2998 colon
  GI50: 2220 nM
  TGI: 4160 nM
T-47D breast
  GI50: 1880 nM
  TGI: 4480 nM
SW-620 colon
  GI50: 1500 nM
  TGI: 3320 nM
HCT-116 colon
  GI50: 650 nM
  TGI: 3290 nM
SK-MEL-5 melanoma
  GI50: 1830 nM
  TGI: 3350 nM
HOP-62 NSCLC
  GI50: 1640 nM
  TGI: 4780 nM
786-0 renal
  GI50: 1840 nM
  TGI: 3980 nM
K-562 leukemia
  GI50: 1680 nM
  TGI: 8100 nM
HS 578T breast
  GI50: 1960 nM
  TGI: 5370 nM
SF-539 CNS
  GI50: 1480 nM
  TGI: 2820 nM
MCF7 breast
  GI50: 1840 nM
  TGI: 4910 nM
ACHN renal
  GI50: 1120 nM
  TGI: 2320 nM
A498 renal
  GI50: 2900 nM
  TGI: 9830 nM
MDA-MB-231 breast
  GI50: 1630 nM
  TGI: 3380 nM
COLO 205 colon
  GI50: 1650 nM
  TGI: 3840 nM
TK-10 renal
  GI50: 1940 nM
  TGI: 4050 nM
SNB-75 CNS
  GI50: 1040 nM
  TGI: 3490 nM
SN12C renal
  GI50: 1380 nM
  TGI: 2760 nM
U251 CNS
  GI50: 1960 nM
  TGI: 4320 nM
NCI/ADR-RES ovarian
  GI50: 2570 nM
  TGI: 8840 nM
MDA-MB-435
  GI50: 1320 nM
  TGI: 2750 nM
OVCAR-4 ovarian
  GI50: 1630 nM
  TGI: 3380 nM
CAKI-1 renal
  GI50: 1210 nM
  TGI: 2840 nM
EKVX NSCLC
  GI50: 2040 nM
  TGI: 4660 nM
SR leukemia
  GI50: 1090 nM
  TGI: 5090 nM
HL-60(TB) leukemia
  GI50: 1510 nM
  TGI: 4550 nM
RPMI-8226 leukemia
  GI50: 582 nM
  TGI: 3320 nM
IGROV1 ovarian
  GI50: 1320 nM
  TGI: 2640 nM
OVCAR-8 ovarian
  GI50: 2560 nM
  TGI: 11000 nM
NCI-H23 lung
  GI50: 2410 nM
  TGI: 5690 nM
UACC-62 melanoma
  GI50: 1550 nM
  TGI: 2940 nM
SK-MEL-2 melanoma
  GI50: 1950 nM
  TGI: 4510 nM
PC-3 prostate
  GI50: 1690 nM
  TGI: 3650 nM
UACC-257 melanoma
  GI50: 1900 nM
  TGI: 3940 nM
SF-295 CNS
  GI50: 10500 nM
  TGI: 22200 nM
SK-MEL-28 melanoma
  GI50: 1740 nM
  TGI: 3240 nM
HOP-92 NSCLC
  GI50: 1170 nM
  TGI: 3150 nM
NCI-H522 lung
  GI50: 1710 nM
  TGI: 4380 nM
OVCAR-3 ovarian
  GI50: 1290 nM
  TGI: 2790 nM
A549 NSCLC
  GI50: 3240 nM
  TGI: 12900 nM
NCI-H460 lung
  GI50: 1860 nM
  TGI: 4020 nM
CCRF-CEM leukemia
  GI50: 1170 nM
  TGI: 6920 nM
OVCAR-5 ovarian
  GI50: 1520 nM
  TGI: 3070 nM
RXF 393 renal
  GI50: 1610 nM
  TGI: 3060 nM
DU-145 prostate
  GI50: 1590 nM
  TGI: 3180 nM
MOLT-4 leukemia
  GI50: 2290 nM
  TGI: 6470 nM
SK-OV-3 ovarian
  GI50: 3400 nM
  TGI: 14300 nM
SNB-19 CNS
  GI50: 2420 nM
  TGI: 6460 nM
SF-268 CNS
  GI50: 1740 nM
  TGI: 3600 nM
